Columns and labels:
Assay type in all cases: cell-based, S. aureus
wild-type strain = test: Subinhibitory antibiotic added to growing culture at mid-log phase, optical density followed; details: 200 ng/ml penicillin (subinhibitory) added at OD650 nm of 0.5, mid-log phase, FIG. 1
RAT mutant [1] = test: Plating of antibiotic-treated cultures on agar plates without antibiotic selection (kill)
Description: (§1) RAT plays a role in regulating autolytic activity of S. aureus. […] To evaluate whether the cell lysis of the RAT mutant was additive to the effect of a subinhibitory concentration of penicillin, 200 ng/ml of penicillin was added to a growing culture of the RAT mutant at an OD650 nm of 0.5, corresponding to the mid-log phase. […] This finding is consistent with the additive effect of penicillin upon the lytic propensity of the RAT mutant late in the growth cycle. […] In comparison to the parental strain without antibiotics, the RAT mutant with subinhibitory concentrations of penicillin has a 3–4 log kill.

RAT mutant [2] = test: Subinhibitory antibiotic added to growing culture at mid-log phase, optical density followed; details: 200 ng/ml penicillin (subinhibitory) added at OD650 nm of 0.5, mid-log phase, FIG. 1
Description: as §1

## penicillin
wild-type strain
  change in optical density (growth) after addition of antibiotic: no increase in optical density
RAT mutant [1]; cultures with subinhibitory antibiotic plated on agar without antibiotic selection, compared with parental strain
  more kill of RAT mutant than the parental strain: 1–2 log
RAT mutant [1]; subinhibitory concentrations of penicillin, compared with parental strain without antibiotics
  kill of RAT mutant in comparison to the parental strain without antibiotics: 3–4 log
RAT mutant [2]
  change in optical density (cell lysis) after addition of antibiotic: further reduction in optical density

— US7148328B2, “Compositions and methods for regulating autolytic processes in bacteria” (Trustees of Dartmouth College, priority 2001, dated 2006)
